# Read-outs that look alike come from different tables or passages of the source.
# Experiments:
# FIH^K106A = target: T1, FIH^K106A (Homo sapiens, UniProt Q9NWT6, K106A); assay: Affinity-based fluorescence polarization (FP) assay with the FIH K106A variant, without and with irradiation; type: binding; conditions: read-out: Binding affinity to FIH^K106A: Ki
# T1 construct: encoding for full-length FIH with an N-terminal His6 tag or for FIH (K106A) with an N-terminal His6 tag; His6 (N); host or cells: Escherichia coli BL21
# T1 sequence (Q9NWT6 whole entry K106A): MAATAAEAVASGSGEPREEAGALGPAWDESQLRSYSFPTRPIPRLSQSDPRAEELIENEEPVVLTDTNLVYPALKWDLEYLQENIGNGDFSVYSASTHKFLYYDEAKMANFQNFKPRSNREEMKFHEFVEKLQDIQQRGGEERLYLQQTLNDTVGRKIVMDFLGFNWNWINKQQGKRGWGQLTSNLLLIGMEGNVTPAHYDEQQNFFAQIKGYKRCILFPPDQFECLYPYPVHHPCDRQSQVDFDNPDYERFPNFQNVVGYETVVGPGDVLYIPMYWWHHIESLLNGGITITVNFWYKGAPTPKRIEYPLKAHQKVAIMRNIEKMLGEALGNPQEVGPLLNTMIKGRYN
# Text: (§1) 4 (A) Light-induced click conjugation between NBA-ZG-2291 and FIH protein. (B) Light-induced binding affinity of NBA-ZG-2291 to FIH^ WT . (C) Light-induced binding affinity of NBA-ZG-2291 to FIH^ K106A . […] TEXT PRINTED IN THE PICTURE: (B) NBA-ZG-2291: Binding affinity to FIH^WT: Ki (nM): 414 ± 14 (Irradtion time (min): 0); Binding affinity to FIH^WT: Ki (nM): 74.1 ± 1.6 (Irradtion time (min): 15); Binding affinity to FIH^WT: Ki (nM): 46.7 ± 1.4 (Irradtion time (min): 30); Binding affinity to FIH^WT: Ki (nM): 33.2 ± 0.6 (Irradtion time (min): 60); Binding affinity to FIH^WT: Ki (nM): 30.2 ± 2.0 (Irradtion time (min): 90); Binding affinity to FIH^WT: Ki (nM): 32.1 ± 0.7 (Irradtion time (min): 120) | (B) Neg-1: Binding affinity to FIH^WT: Ki (nM): 423 ± 7 (Irradtion time (min): 0); Binding affinity to FIH^WT: Ki (nM): 408 ± 30 (Irradtion time (min): 15); Binding affinity to FIH^WT: Ki (nM): 459 ± 32 (Irradtion time (min): 30); Binding affinity to FIH^WT: Ki (nM): 427 ± 17 (Irradtion time (min): 60); Binding affinity to FIH^WT: Ki (nM): 396 ± 29 (Irradtion time (min): 90); Binding affinity to FIH^WT: Ki (nM): 428 ± 15 (Irradtion time (min): 120) | (B) Neg-2: Binding affinity to FIH^WT: Ki (nM): 742 ± 65 (Irradtion time (min): 0); Binding affinity to FIH^WT: Ki (nM): 799 ± 69 (Irradtion time (min): 15); Binding affinity to FIH^WT: Ki (nM): 758 ± 13 (Irradtion time (min): 30); Binding affinity to FIH^WT: Ki (nM): 744 ± 30 (Irradtion time (min): 60); Binding affinity to FIH^WT: Ki (nM): 788 ± 36 (Irradtion time (min): 90); Binding affinity to FIH^WT: Ki (nM): 786 ± 35 (Irradtion time (min): 120) | (C) NBA-ZG-2291: Binding affinity to FIH^K106A: Ki (nM): 442 ± 12 (Irradtion time (min): 0); Binding affinity to FIH^K106A: Ki (nM): 427 ± 22 (Irradtion time (min): 15); Binding affinity to FIH^K106A: Ki (nM): 426 ± 7 (Irradtion time (min): 30); Binding affinity to FIH^K106A: Ki (nM): 420 ± 11 (Irradtion time (min): 60); Binding affinity to FIH^K106A: Ki (nM): 418 ± 5 (Irradtion time (min): 90); Binding affinity to FIH^K106A: Ki (nM): 424 ± 12 (Irradtion time (min): 120) | (C) Neg-1: Binding affinity to FIH^K106A: Ki (nM): 271 ± 14 (Irradtion time (min): 0); Binding affinity to FIH^K106A: Ki (nM): 275 ± 15 (Irradtion time (min): 15); Binding affinity to FIH^K106A: Ki (nM): 268 ± 25 (Irradtion time (min): 30); Binding affinity to FIH^K106A: Ki (nM): 266 ± 22 (Irradtion time (min): 60); Binding affinity to FIH^K106A: Ki (nM): 264 ± 41 (Irradtion time (min): 90); Binding affinity to FIH^K106A: Ki (nM): 270 ± 3 (Irradtion time (min): 120) | (C) Neg-2: Binding affinity to FIH^K106A: Ki (nM): 567 ± 37 (Irradtion time (min): 0); Binding affinity to FIH^K106A: Ki (nM): 548 ± 61 (Irradtion time (min): 15); Binding affinity to FIH^K106A: Ki (nM): 521 ± 50 (Irradtion time (min): 30); Binding affinity to FIH^K106A: Ki (nM): 627 ± 17 (Irradtion time (min): 60); Binding affinity to FIH^K106A: Ki (nM): 565 ± 10 (Irradtion time (min): 90); Binding affinity to FIH^K106A: Ki (nM): 552 ± 38 (Irradtion time (min): 120) […]
# To further verify the covalent binding between NBA-ZG-2291 and Lys106, the FIH^ K106A variant was produced and purified.
# (§2) 3. Experimental procedures
# (§3) 3.1 Fluorescence polarization (FP) assays1 with FIHWT and FIHK106A pET28a vectors encoding for full-length FIH with an N-terminal His6 tag or for FIH (K106A) with an N-terminal His6 tag were purchased from Nanjing Zoonbio Biotechnology. Both the FIHWT and FIHK106A protein were expressed from the respective plasmid in Escherichia coli BL21 at 20 °C for 16 h. E. coli cells were lysed and the lysate were clarified by centrifugation. His6-tagged FIHWT or FIHK106A was purified on a HisTrap affinity column (GE Healthcare) by elution with an imidazole gradient. The final purified proteins were stored in PBS buffer.
# FP assays were carried out using 384 -well plates (#3575, Corning); the polarization signal was measured using a SPARK Multi-Mode Microplate Reader (Tecan). […]
# FIH^WT = target: T2, FIH^WT (Homo sapiens, UniProt Q9NWT6); assay: Affinity-based fluorescence polarization (FP) assay with FIH WT, without and with 365 nm irradiation; conditions: read-out: Binding affinity to FIH^WT: Ki
# T2 construct: pET28a vectors encoding for full-length FIH with an N-terminal His6 tag; His6 (N); host or cells: Escherichia coli BL21
# T2 sequence (Q9NWT6 whole entry): as the sequence (Q9NWT6 whole entry K106A) above, with A106K counted along it
# Text: We also performed a reported affinity-based fluorescence polarization (FP) assay (Figure S6) , under light activation to measure the binding affinity of NBA-ZG-2291 to FIH (Figure A). […] These observations are consistent with the intact protein MS analyzes. We also evaluated the binding affinities of two negative controls to FIH, which were designed not to covalently react with Lys106.
# as §1, §2
# as §3, with “His6- […]” for “His6-tagged FIHWT or FIHK106A was purified on a HisTrap affinity column (GE Healthcare) by elution with an imidazole gradient. The final purified proteins were stored in PBS buffer.”
structure (smiles),measurement,setting,value
O=C(O)CNC(=O)c1ncc(-c2cc(-c3cccc([N+](=O)[O-])c3)no2)cc1O [Neg-1],Ki,FIH^K106A; irradiation time 0 min,271 ± 14 nM
same,Ki,FIH^K106A; irradiation time 15 min,275 ± 15 nM
same,Ki,FIH^K106A; irradiation time 30 min,268 ± 25 nM
same,Ki,FIH^K106A; irradiation time 60 min,266 ± 22 nM
same,Ki,FIH^K106A; irradiation time 90 min,264 ± 41 nM
same,Ki,FIH^K106A; irradiation time 120 min,270 ± 3 nM
same,Ki,FIH^WT; irradiation time 0 min,423 ± 7 nM
same,Ki,FIH^WT; irradiation time 15 min,408 ± 30 nM
same,Ki,FIH^WT; irradiation time 30 min,459 ± 32 nM
same,Ki,FIH^WT; irradiation time 60 min,427 ± 17 nM
same,Ki,FIH^WT; irradiation time 90 min,396 ± 29 nM
same,Ki,FIH^WT; irradiation time 120 min,428 ± 15 nM
O=C(O)CNC(=O)c1ncc(-c2cc(-c3ccc(CO)cc3)no2)cc1O [Neg-2],Ki,FIH^K106A; irradiation time 0 min,567 ± 37 nM
same,Ki,FIH^K106A; irradiation time 15 min,548 ± 61 nM
same,Ki,FIH^K106A; irradiation time 30 min,521 ± 50 nM
same,Ki,FIH^K106A; irradiation time 60 min,627 ± 17 nM
same,Ki,FIH^K106A; irradiation time 90 min,565 ± 10 nM
same,Ki,FIH^K106A; irradiation time 120 min,552 ± 38 nM
same,Ki,FIH^WT; irradiation time 0 min,742 ± 65 nM
same,Ki,FIH^WT; irradiation time 15 min,799 ± 69 nM
same,Ki,FIH^WT; irradiation time 30 min,758 ± 13 nM
same,Ki,FIH^WT; irradiation time 60 min,744 ± 30 nM
same,Ki,FIH^WT; irradiation time 90 min,788 ± 36 nM
same,Ki,FIH^WT; irradiation time 120 min,786 ± 35 nM

# Source: publication PMC12123601, “Light-Induced, Lysine-Targeting Irreversible Covalent Inhibition of the Human Oxygen Sensing Hydroxylase Factor Inhibiting HIF (FIH)” (Journal of the American Chemical Society, 2025)
